Earlier results as cited in patent US20160250192A1, “PRODUCTION METHOD OF PHARMACEUTICAL COMPOSITION CONTAINING CANDESARTAN CILEXETIL” (Sawai Pharmaceutical Co., Ltd., priority 2013, published 2016).

- solubility in water: poorly soluble
Compound: CCOc1nc2cccc(C(=O)OC(C)OC(=O)OC3CCCCC3)c2n1Cc1ccc(-c2ccccc2-c2nnn[nH]2)cc1 (racemic) [Candesartan cilexetil, (RS)-1-[(cyclohexyloxy)carbonyloxy]ethyl 2-ethoxy-1-{[2′-(1H-tetrazole-5-yl)-biphenyl-4-yl]methyl}-1H-benzimidazole-7-carboxylate]
